Measured values from ChEMBL document CHEMBL1201862, “PubChem BioAssay data set” (2004).
Calls of active or inactive are those of the source. Cut-off read from the data, not from the text of the source, for most assays here: actives have a measured EC50 and inactives only a lower limit.

How the values were obtained:
[1] = luciferase reporter signal suppression in cells – H4 neuroglioma cells, luminescence, dose response (AID 1990); assay type: functional, cell-based
[2] = alpha-synuclein stem-loop luciferase translation blockers – H4 neuroglioma cells, luminescence, confirmation (AID 1988); assay type: functional, cell-based
[3] = Luminescence Cell-Based Dose Response HTS to Identify Inhibitors of 5'UTR Stem-Loop Driven Prion Protein mRNA Translation in H4 Neuroglioblastoma Cells. [Related pubchem assays: 1827 (Project Summary), 1813 (Primary HTS)]; assay type: functional
[4] = biological target: T1, Corticotropin-releasing factor receptor 2/Corticotropin-releasing factor-binding protein (Homo sapiens, UniProt P24387+Q13324); experiment: Dose Response confirmation of uHTS hits for small molecule antagonists of the CRF-binding protein and CRF-R2 receptor complex.; assay type: functional; settings: read-out: IC50_Mean
T1 sequence (Q13324 whole entry): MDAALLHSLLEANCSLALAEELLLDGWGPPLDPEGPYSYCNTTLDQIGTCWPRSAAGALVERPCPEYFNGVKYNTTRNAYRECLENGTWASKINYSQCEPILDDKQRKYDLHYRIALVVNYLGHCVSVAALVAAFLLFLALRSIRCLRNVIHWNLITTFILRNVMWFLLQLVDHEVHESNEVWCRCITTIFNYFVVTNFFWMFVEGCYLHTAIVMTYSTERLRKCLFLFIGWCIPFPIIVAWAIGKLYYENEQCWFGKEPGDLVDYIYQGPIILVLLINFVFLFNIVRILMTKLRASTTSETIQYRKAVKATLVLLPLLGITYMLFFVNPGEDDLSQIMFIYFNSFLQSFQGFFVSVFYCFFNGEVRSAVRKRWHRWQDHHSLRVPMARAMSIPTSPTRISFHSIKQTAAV
T1 sequence (P24387 whole entry): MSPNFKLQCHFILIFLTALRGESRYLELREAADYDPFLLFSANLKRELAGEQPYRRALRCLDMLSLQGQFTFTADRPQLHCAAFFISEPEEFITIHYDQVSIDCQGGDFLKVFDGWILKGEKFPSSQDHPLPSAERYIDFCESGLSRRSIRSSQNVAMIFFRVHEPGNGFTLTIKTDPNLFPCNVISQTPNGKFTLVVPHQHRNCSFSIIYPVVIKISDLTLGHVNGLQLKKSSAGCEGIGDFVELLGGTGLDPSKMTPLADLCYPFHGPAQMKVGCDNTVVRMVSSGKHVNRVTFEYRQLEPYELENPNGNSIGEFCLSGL

[5] = biological target: T1, Corticotropin-releasing factor receptor 2/Corticotropin-releasing factor-binding protein; experiment: activators of CRF receptor 2 with binding protein – uHTS hits, confirmation (AID 602473); assay type: functional; settings: read-out: EC50_Mean
[6] = fluconazole-exposed Candida albicans growth modulators – fluorescence, retest, confirmation (AID 2467); assay type: functional, cell-based
[7] = NIH-3T3 fibroblast cytotoxicity, dose response, cytotoxicity control, cell-based, fluorescence, Alamar Blue, secondary assay (AID 2327); assay type: functional;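 note: NIH-3T3 mouse fibroblasts cultured with fluconazole at 8 µg/mL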
INS1 = experiment: INS-1E survival protection against cytokine death – cell-based, luminescence, retest, dose response (AID 449756); assay type: functional; settings: Rattus norvegicus;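 note: cell death triggered by IL-1 beta plus TNF-alpha plus IFN-gamma mixture; protective hits raise ATP signal compared with cytokine alone wells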
H4 = experiment: Luminescence Cell-Based Dose Response HTS to Identify Activators of 5'UTR Stem-Loop Driven Prion Protein mRNA Translation in H4 Neuroglioblastoma Cells. [Related pubchem assays: 1829 (Project Summary), 1814 (Primary HTS)]; assay type: functional; settings: Homo sapiens
[8] = Luminescence Cell-Based Dose Response HTS to Identify Activators of Luciferase Translation or Activity in H4 […] Cells. [Related pubchem assays: 1829 (Project Summary), 1814 (Primary HTS)]; assay type: functional
[9] = Trypanosoma cruzi growth suppression in host cells – NIH3T3 host cells, beta-gal luminescence, confirmation (AID 2044); assay type: functional, cell-based;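 note: intracellular parasites grown in NIH/3T3 mouse fibroblasts as host cells; luminescent beta-galactosidase reporter signal from transgenic T. cruzi replicating inside host cells; inhibitors lower the luminescence signal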
[10] = NIH3T3 cell viability loss – ATP luminescence, mouse fibroblasts, counter-screen, dose response (AID 2010); assay type: functional, cell-based;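 note: cells exposed to compound for about 90 hours before reading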
Cytochrome P450 2D6 = Cytochrome P450 2D6 (Homo sapiens, UniProt P10635);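 note: CYP2D6 member of a cytochrome P450 panel assay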
Sequence of Cytochrome P450 2D6 (P10635 whole entry): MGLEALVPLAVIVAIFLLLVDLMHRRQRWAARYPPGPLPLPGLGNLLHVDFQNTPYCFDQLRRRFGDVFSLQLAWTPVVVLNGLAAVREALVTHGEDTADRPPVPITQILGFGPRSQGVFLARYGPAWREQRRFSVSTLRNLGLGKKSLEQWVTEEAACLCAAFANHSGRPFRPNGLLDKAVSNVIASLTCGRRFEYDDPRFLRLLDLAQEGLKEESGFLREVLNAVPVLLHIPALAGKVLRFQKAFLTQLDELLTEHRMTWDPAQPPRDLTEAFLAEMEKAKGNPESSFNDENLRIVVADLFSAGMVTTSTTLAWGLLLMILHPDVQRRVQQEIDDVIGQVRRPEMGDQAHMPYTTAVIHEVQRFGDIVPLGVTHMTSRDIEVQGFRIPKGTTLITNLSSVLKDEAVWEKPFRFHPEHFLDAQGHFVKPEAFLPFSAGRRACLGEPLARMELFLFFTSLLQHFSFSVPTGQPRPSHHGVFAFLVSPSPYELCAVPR

[11] = viability of uninfected HEp-2 cells – cell-based, HTS, cytotoxicity control for RSV inhibitor project, dose response (AID 2410); assay type: functional; settings: human respiratory syncytial virus
Cytochrome P450 3A4 = Cytochrome P450 3A4 (Homo sapiens, UniProt P08684);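 note: CYP3A4 tested as one member of a cytochrome P450 panel screen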
Sequence of Cytochrome P450 3A4 (P08684 whole entry): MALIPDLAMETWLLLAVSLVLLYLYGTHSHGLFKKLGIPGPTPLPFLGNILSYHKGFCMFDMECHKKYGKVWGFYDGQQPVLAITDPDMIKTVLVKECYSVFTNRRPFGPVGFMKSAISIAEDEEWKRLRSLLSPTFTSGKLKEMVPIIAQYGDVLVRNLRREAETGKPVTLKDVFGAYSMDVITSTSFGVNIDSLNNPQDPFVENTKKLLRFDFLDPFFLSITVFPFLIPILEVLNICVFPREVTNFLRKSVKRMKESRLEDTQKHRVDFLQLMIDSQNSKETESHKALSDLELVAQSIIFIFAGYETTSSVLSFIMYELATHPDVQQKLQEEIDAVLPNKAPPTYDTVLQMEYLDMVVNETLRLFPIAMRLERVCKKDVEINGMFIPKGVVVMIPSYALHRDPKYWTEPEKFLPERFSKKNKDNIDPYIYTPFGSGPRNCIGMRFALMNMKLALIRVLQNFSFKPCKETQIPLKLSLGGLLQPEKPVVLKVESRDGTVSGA

Cytochrome P450 1A2 = biological target: T2, Cytochrome P450 1A2 (Homo sapiens, UniProt P05177);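 note: PubChem cytochrome P450 panel assay, CYP1A2 panel member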
T2 sequence (P05177 whole entry): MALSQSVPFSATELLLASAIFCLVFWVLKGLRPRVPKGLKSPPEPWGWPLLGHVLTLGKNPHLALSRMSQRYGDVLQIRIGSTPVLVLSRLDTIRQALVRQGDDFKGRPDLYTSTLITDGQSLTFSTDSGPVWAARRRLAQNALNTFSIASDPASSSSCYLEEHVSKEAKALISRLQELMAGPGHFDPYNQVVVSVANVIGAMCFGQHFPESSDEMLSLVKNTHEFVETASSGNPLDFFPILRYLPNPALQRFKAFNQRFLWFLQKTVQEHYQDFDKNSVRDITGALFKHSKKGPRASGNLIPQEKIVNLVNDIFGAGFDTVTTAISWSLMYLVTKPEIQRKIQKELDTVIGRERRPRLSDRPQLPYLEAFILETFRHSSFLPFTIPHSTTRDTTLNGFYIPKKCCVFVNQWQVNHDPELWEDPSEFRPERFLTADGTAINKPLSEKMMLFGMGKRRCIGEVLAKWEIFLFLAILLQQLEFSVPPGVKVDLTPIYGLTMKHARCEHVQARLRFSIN

Streptococcus = experiment: GAS UMAA2166 growth inhibition – luminescence, BacTiterGlo, counter-screen for streptokinase expression inhibitor project, dose response (AID 1915); assay type: functional, organism-based;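 note: potency for reduction of bacterial viability or growth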
[12] = system: Streptococcus sp. 'group A'; experiment: Streptococcus pyogenes SK(-)GAS viability under kanamycin – luminescence, BacTiterGlo, confirmation, counter-screen for streptokinase expression inhibitor project, dose response (AID 1900); assay type: functional, organism-based
[13] = biological target: T3, Rac GTPase-activating protein 1 (Homo sapiens, UniProt Q9H0H5); experiment: blockers of MgcRacGAP-driven Rac1 GTP hydrolysis – biochemical, ADP Hunter fluorescence, primary and confirmatory, confirmation (AID 624330); assay type: functional
T3 sequence (Q9H0H5 whole entry): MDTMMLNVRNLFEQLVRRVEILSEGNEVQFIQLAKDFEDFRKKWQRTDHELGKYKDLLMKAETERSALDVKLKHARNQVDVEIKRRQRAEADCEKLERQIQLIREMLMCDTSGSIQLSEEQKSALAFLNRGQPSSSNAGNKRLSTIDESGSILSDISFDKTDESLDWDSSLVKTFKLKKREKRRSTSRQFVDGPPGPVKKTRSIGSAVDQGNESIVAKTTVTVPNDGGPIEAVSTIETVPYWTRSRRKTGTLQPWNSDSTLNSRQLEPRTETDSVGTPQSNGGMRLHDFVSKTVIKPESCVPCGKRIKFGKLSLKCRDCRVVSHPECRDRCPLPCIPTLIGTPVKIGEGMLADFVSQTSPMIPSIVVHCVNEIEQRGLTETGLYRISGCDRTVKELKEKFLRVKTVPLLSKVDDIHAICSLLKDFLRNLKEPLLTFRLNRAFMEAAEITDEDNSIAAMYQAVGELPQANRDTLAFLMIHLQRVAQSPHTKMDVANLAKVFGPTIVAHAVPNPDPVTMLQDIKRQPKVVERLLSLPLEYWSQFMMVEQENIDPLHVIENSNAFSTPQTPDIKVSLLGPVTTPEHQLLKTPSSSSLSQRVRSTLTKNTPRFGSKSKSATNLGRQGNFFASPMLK

COc1ccc(/C=C/C(=O)Nc2ccc(-n3nncc3-c3ccc(OC)c(OC)c3)cc2)cc1OC
EC50 [1]: 23.4 µM (active) | EC50 [2]: 16.5 µM (active) | EC50 [3]: > 120 µM (not active)

O=[N+]([O-])c1ccc(N2CCOCC2)cc1NCc1ccccc1
IC50 [4]: > 47.1 µM (inactive) | EC50 [5]: > 53 µM (inactive)

O=C(Nc1nn[nH]n1)c1cccc([N+](=O)[O-])c1
EC50 [1]: > 120 µM (not active) | EC50 [2]: > 120 µM (not active) | EC50 [3]: > 120 µM (not active)

O=C(Cc1ccc(O)cc1)N/N=C/c1cccnc1
EC50 [6]: > 38 µM (not active) | EC50 [7]: > 160 µM (inactive)

Cc1cc(C(=O)Nc2ccc(CC(=O)O)cc2)c(C)o1
EC50 [1]: 12.9 µM (active) | EC50 [2]: 18.1 µM (active) | EC50 [3]: 23.1 µM (active)

COc1ccc(C(=O)N(c2ccccc2)C2C=CS(=O)(=O)C2)cc1 (stereo not given)
IC50 [4]: > 47.1 µM (inactive) | EC50 [5]: > 53 µM (inactive)

O=C1C(C2=NC(c3ccccn3)C3C(=O)N(c4ccc(OC(F)(F)F)cc4)C(=O)C23)=C(O)c2ccccc21 (stereo not given)
AC50 (INS1): 5.71 µM (active)

CCOc1ccccc1-n1c(C)nc2cc(C(=O)O)ccc21
IC50 [4]: > 47.1 µM (inactive) | EC50 [5]: > 53 µM (inactive)

CCOc1ccc(-c2cc(C(=O)N/N=C(\C)c3cccnc3)c3ccccc3n2)cc1
EC50 (H4): 84.3 µM (inconclusive)

O=C1C(/C=N/c2ccc(F)cc2)=C(O)c2ccccc21
EC50 [8]: 0.173 µM (active) | EC50 (H4): 0.38 µM (active)

CCN(c1ccccc1)S(=O)(=O)c1ccc(C(=O)Nc2nnc(C3CC3)o2)cc1
EC50 [6]: 2.19 µM (active) | EC50 [9]: 2.16 µM (active) | EC50 [7]: > 160 µM (inactive) | EC50 [10]: 3.71 µM (active)

O=S(=O)(c1ccc(Cl)s1)N1CCCc2cccc(O)c21
EC50 [6]: > 38 µM (not active) | EC50 [7]: 21.4 µM (active) | EC50 [8]: 6.05 µM (active) | EC50 (H4): 45.3 µM (active)

CSc1ccc(CNC(=O)Cc2ccc(NC(=O)C3=C(C)OCCS3)cc2)cc1
EC50 [8]: 1.92 µM (active)

O=Nc1c(O)n(Cc2cccc(Cl)c2)c2ccccc12
EC50 [6]: 2.99 µM (active) | EC50 [7]: > 150 µM (inactive) | AC50 (Cytochrome P450 2D6): 22.4 µM (inconclusive) | CC50 [11]: 11.7 µM (active) | AC50 (Cytochrome P450 3A4): 39.8 µM (inconclusive) | AC50 (Cytochrome P450 1A2): 25.1 µM (inconclusive)

O=C(COc1ccc(Cl)cc1Cl)NNC(=S)NC(=O)c1ccco1
EC50 (Streptococcus): 1.57 µM (active) | EC50 [12]: 0.309 µM (active)

Sc1nnc(-c2cccs2)n1/N=C/c1cccs1
EC50 [6]: 1.93 µM (active) | EC50 [7]: > 150 µM (inactive) | IC50 [13]: 126 µM (active)

COc1ccccc1N1CC(C)(C)C(=O)N(C(=O)c2ccc(Cl)cc2)C1=S
AC50 (INS1): > 260 µM (inactive)

CC(=O)Cc1nsc(Nc2ccc(Cl)cc2)n1
EC50 [6]: > 38 µM (not active) | EC50 [7]: > 160 µM (inactive)

COc1ccc(NCCC#N)cc1
IC50 [13]: 79.1 µM (active)
